Data taken from ChEMBL document CHEMBL4602733 (J Med Chem, 2020).
Values belong to the compound of their own block, whether it stands above or below them.

Columns and labels:
Histamine H4 receptor [1] = molecular target: T1, Histamine H4 receptor (Mus musculus, UniProt Q91ZY2); test: Displacement of UR-DEBa176 from mouse recombinant H4R expressed in HEK293T-SF-His6-CRE-Luc cells; format: cell-based
T1 sequence (Q91ZY2 whole entry): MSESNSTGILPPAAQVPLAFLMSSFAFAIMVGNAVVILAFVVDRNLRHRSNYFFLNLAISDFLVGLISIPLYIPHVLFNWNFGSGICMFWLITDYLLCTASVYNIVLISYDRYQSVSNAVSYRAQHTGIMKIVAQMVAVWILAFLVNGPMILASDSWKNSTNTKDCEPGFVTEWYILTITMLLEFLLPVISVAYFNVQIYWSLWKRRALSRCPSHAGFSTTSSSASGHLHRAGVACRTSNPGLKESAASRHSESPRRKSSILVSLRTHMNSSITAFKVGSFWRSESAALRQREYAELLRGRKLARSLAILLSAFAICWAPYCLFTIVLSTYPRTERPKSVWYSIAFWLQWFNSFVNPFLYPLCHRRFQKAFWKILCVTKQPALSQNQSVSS

Histamine H4 receptor [2] = molecular target: T1, Histamine H4 receptor; test: Antagonist activity at mouse H4R expressed in HEK293 cells co-expressing ELucC/ELucN-beta-arrestin2 assessed as inhibition of histamine-induced beta-arrestin recruitment preincubated for 15 mins followed by histamine addition by luciferase reporter gene assay; format: cell-based
Histamine H4 receptor [3] = molecular target: T1, Histamine H4 receptor; test: Inhibition of UR-DEBa242 binding to mouse recombinant NLuc/GPCR-fused H4R expressed in HEK293T cells measured after 30 mins by furimazine substrate based BRET assay; format: cell-based, HEK-293T
[4] = Chemical stability of the compound in pH 7.4 phosphate buffered saline at 200 uM incubated for 5 to 6 hrs in white 96-well cellGrade plates by RP-HPLC method; format: physicochemical; settings: buffer, pH 7.4, 200 µM
Histamine H1 receptor = Histamine H1 receptor (Homo sapiens, UniProt P35367); test: Displacement of [3H]pyrilamine from human recombinant H1R expressed in baculovirus infected Sf9 insect cell membranes co-expressing RGS4
Histamine H3 receptor [5] = molecular target: T2, Histamine H3 receptor (Homo sapiens, UniProt Q9Y5N1); test: Binding affinity to human recombinant NLuc/GPCR-fused H3R expressed in HEK293T cells assessed as dissociation rate constant measured after 30 mins in presence of thioperamide by furimazine substrate based BRET assay; format: cell-based; settings: HEK-293T
[6] = Chemical stability of the compound in pH 7.4 phosphate buffered saline at 200 uM incubated for >= 1 hr in 1.5 mL microtubes by RP-HPLC method; format: physicochemical; settings: buffer, pH 7.4, 1 h
Histamine H3 receptor [7] = molecular target: T2, Histamine H3 receptor; parameters: species or system Sf9
[8] = Chemical stability of the compound in pH 7.4 phosphate buffered saline at 200 uM incubated for 5 to 6 hrs in 96-well Primaria plates by RP-HPLC method; format: physicochemical; settings: buffer, pH 7.4, 200 µM
Histamine H3 receptor [9] = molecular target: T2, Histamine H3 receptor; test: Binding affinity to human recombinant NLuc/GPCR-fused H3R expressed in HEK293T cells assessed as dissociation constant measured after 30 mins in presence of thioperamide by furimazine substrate based BRET assay; format: cell-based, HEK-293T
Histamine H3 receptor [10] = molecular target: T2, Histamine H3 receptor; test: Binding affinity to human recombinant NLuc/GPCR-fused H3R expressed in HEK293T cells assessed as dissociation half life measured after 30 mins in presence of thioperamide by furimazine substrate based BRET assay; format: cell-based; settings: HEK-293T
Histamine H3 receptor [11] = molecular target: T2, Histamine H3 receptor; test: Agonist activity at human H3R expressed in HEK293T-SP-FLAG-hH3R-CRE-CBR cells incubated for 5 hrs by luciferase reporter gene assay; format: functional, cell-based
Histamine H3 receptor [12] = molecular target: T2, Histamine H3 receptor; test: Binding affinity to human recombinant NLuc/GPCR-fused H3R expressed in HEK293T cells assessed as association rate constant measured after 30 mins by furimazine substrate based BRET assay; format: cell-based; settings: HEK-293T
[13] = Drug uptake in wild-type HEK293T cells at 200 nM measured after 20 mins by confocal microscopic analysis; format: ADME, cell-based; settings: human, hek-293t, 0.2 µM
[14] = Chemical stability of the compound in pH 7.4 phosphate buffered saline at 200 uM incubated for >= 1 hr in Sigmacote-treated 1.5 mL microtubes by RP-HPLC method; format: physicochemical; settings: buffer, pH 7.4, 1 h
Histamine H3 receptor [15] = molecular target: T2, Histamine H3 receptor; test: Binding affinity to human recombinant NLuc/GPCR-fused H3R expressed in HEK293T cells measured after 30 mins by furimazine substrate based BRET assay; format: cell-based, HEK-293T
Homo sapiens = species: Homo sapiens; parameters: reference not given here
Histamine H3 receptor [16] = molecular target: T2, Histamine H3 receptor; parameters: species or system Sf9; remark: listed apart in the source
Histamine H4 receptor [17] = molecular target: T3, Histamine H4 receptor (Homo sapiens, UniProt Q9H3N8); parameters: species or system Sf9
Histamine H3 receptor [18] = molecular target: T2, Histamine H3 receptor; test: Inhibition of UR-DEBa242 binding to human recombinant NLuc/GPCR-fused H3R expressed in HEK293T cells measured after 30 mins by furimazine substrate based BRET assay; format: cell-based, HEK-293T
Histamine H3 receptor [19] = molecular target: T2, Histamine H3 receptor; parameters: species or system Sf9; remark: listed apart in the source
Histamine H4 receptor [20] = molecular target: T3, Histamine H4 receptor; test: Inhibition of UR-DEBa242 binding to human recombinant NLuc/GPCR-fused H4R expressed in HEK293T cells measured after 30 mins by furimazine substrate based BRET assay; format: cell-based, HEK-293T
Histamine H4 receptor [21] = molecular target: T3, Histamine H4 receptor
Histamine H4 receptor [22] = molecular target: T3, Histamine H4 receptor; parameters: species or system Sf9; remark: listed apart in the source
Histamine H3 receptor [23] = molecular target: T2, Histamine H3 receptor; test: Antagonist activity at human H3R expressed in HEK293T-SP-FLAG-hH3R-CRE-CBR cells assessed as reduction in histamine-induced inhibition of forskolin stimulated luciferase activity preincubated for 15 mins followed by forskolin and histamine addition by luciferase reporter gene assay; format: functional, cell-based

T2 sequence (Q9Y5N1 whole entry, the tested form may be a part): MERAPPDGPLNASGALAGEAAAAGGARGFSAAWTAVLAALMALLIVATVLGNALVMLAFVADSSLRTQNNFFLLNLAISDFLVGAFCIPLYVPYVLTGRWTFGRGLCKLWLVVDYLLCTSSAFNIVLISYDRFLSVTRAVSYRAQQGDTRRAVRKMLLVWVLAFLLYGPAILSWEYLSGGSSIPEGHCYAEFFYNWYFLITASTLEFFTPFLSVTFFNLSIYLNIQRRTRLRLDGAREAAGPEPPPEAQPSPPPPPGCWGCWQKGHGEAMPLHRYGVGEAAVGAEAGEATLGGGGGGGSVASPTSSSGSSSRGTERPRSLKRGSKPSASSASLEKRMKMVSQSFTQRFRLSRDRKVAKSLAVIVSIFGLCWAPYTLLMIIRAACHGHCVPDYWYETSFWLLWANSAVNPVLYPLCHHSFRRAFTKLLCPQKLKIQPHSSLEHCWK
Sequence of Histamine H1 receptor (P35367 whole entry, the tested form may be a part): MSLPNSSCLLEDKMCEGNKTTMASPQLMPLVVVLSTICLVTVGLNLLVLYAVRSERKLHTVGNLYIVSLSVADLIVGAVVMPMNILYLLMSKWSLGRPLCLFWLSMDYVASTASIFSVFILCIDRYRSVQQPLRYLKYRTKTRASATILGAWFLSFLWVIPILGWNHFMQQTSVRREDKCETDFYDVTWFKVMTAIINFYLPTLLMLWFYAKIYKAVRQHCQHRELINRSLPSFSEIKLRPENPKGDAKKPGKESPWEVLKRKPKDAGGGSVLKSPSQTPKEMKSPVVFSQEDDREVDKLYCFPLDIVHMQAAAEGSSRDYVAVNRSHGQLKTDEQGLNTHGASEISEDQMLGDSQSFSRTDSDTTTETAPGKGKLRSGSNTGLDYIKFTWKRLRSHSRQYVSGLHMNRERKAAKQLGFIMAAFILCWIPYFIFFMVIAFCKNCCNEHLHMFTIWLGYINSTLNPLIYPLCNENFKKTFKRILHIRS

SMILES: S=C(NC1CCCCC1)N1CCC(c2cnc[nH]2)CC1 [THIOPERAMIDE]
- Ki (Histamine H4 receptor [1]): 79.4 nM
- EC50 (Histamine H4 receptor [2]): 28.2 nM
- Ki (Histamine H4 receptor [3]): 66.1 nM

SMILES: NCCCCc1c[nH]cn1
- Ratio Ki (Homo sapiens): 2.95

SMILES: NCCCc1c[nH]cn1
- Ki (Histamine H3 receptor [16]): 93.3 nM
- Ratio Ki (Homo sapiens): 0.34

SMILES: CC(C)(C)CNc1nccc(N2CCc3nc[nH]c3C2)n1
- Ki (Histamine H3 receptor [18]): 0.537 nM
- Ki (Histamine H3 receptor [19]): 3.16 nM

SMILES: Cc1cc(/C=C/C=C/c2ccc(N(C)C)cc2)cc(C)[n+]1CCc1c[nH]cn1
- Ki (Histamine H4 receptor [17]): 1950 nM
- Ki (Histamine H3 receptor [7]): 851 nM
- Ratio Ki (Homo sapiens): 2.29

SMILES: NC(=NCc1ccc(Cl)cc1)SCCCc1cnc[nH]1 [CLOBENPROPIT]
- Ki (Histamine H4 receptor [1]): 158 nM
- Ki (Histamine H4 receptor [20]): 77.6 nM
- Ki (Histamine H4 receptor [3]): 123 nM
- Ki (Histamine H4 receptor [21]): 39.8 nM

SMILES: NCCCCCc1c[nH]cn1
- Ki (Histamine H3 receptor [16]): 37.2 nM
- Ratio Ki (Homo sapiens): 17
- Ki (Histamine H4 receptor [22]): 631 nM

Second part, the compound after the results:

- Stability [4]: Stable
- Ki (Histamine H1 receptor): > 4790 nM
- K (Histamine H3 receptor [5]): 2.79 min⁻¹
- Stability [6]: Unstable
- Ki (Histamine H3 receptor [7]): 2.51 nM
- Stability [8]: Stable
- Kd (Histamine H3 receptor [9]; read-out: Kd): 2.54 to 6.86 nM
- Kd (Histamine H3 receptor [9]; read-out: pKd (converted)): 4.68 nM
- T1/2 (Histamine H3 receptor [10]): 15 s
- EC50 (Histamine H3 receptor [11]): 1.7 nM
- K (Histamine H3 receptor [12]): 1.06e+07 M⁻¹ s⁻¹
- Drug uptake [13]: Active
- Stability [14]: Unstable
- Kd (Histamine H3 receptor [15]; read-out: Kd): 1.35 to 1.94 nM
- Kd (Histamine H3 receptor [15]; read-out: pKd (converted)): 1.66 nM
SMILES: Cc1cc(/C=C/C=C/c2ccc(N(C)C)cc2)cc(C)[n+]1CCCCc1c[nH]cn1.O=C(O)C(F)(F)F.O=C([O-])C(F)(F)F

- Ki (Histamine H4 receptor [17]): 1820 nM
- Ki (Histamine H3 receptor [7]): 501 nM
SMILES: Cc1cc(OCCCNC(=O)CCCCCNC(=O)COc2ccc(/C=C/C3=[N+]4C(=Cc5ccc(-c6ccc[nH]6)n5[B-]4(F)F)C=C3)cc2)ccc1-c1nc2c(C)c(F)ccc2[nH]1

- Ki (Histamine H4 receptor [17]): 28200 nM
- Ki (Histamine H3 receptor [7]): 20400 nM
SMILES: Cc1cc(OCCC[n+]2c(C)cc(/C=C/c3cc4c5c(c3)CCCN5CCC4)cc2C)ccc1-c1nc2c(C)c(F)ccc2[nH]1

- Ki (Histamine H3 receptor [7]): 2400 nM
SMILES: Cc1cc(OCCCNC(=O)CCCCCN2\C(=C/C=C/C=C/C3=[N+](CCCCS(=O)(=O)[O-])c4ccccc4C3(C)C)C(C)(C)c3ccccc32)ccc1-c1nc2c(C)c(F)ccc2[nH]1

- Ki (Histamine H3 receptor [7]): 11.7 nM
SMILES: Cc1cc(/C=C/C=C/c2ccc(N(C)C)cc2)cc(C)[n+]1CCCc1c[nH]cn1

- Ki (Histamine H3 receptor [7]): 1620 nM
SMILES: Cc1cc(OCCC[n+]2c(C)cc(/C=C/C=C/c3ccc(N(C)C)cc3)cc2C)ccc1-c1nc2c(C)c(F)ccc2[nH]1

- Ki (Histamine H4 receptor [17]): 933 nM
- Ki (Histamine H3 receptor [7]): 13.5 nM
- Ratio Ki (Homo sapiens): 69.2
SMILES: Cc1cc(/C=C/C=C/c2ccc(N(C)C)cc2)cc(C)[n+]1CCCNCCc1c[nH]cn1

- Ki (Histamine H3 receptor [7]): 457 nM
SMILES: Cc1cc(/C=C/C=C/c2ccc(N(C)C)cc2)cc(C)[n+]1CCCN1CCc2nc[nH]c2C1

- Ki (Histamine H1 receptor): > 4790 nM
- pK (Histamine H3 receptor [23]): 8.71
- Ki (Histamine H3 receptor [7]): 0.912 nM
- Kd (Histamine H3 receptor [15]; read-out: Kd): 0.97 nM
- Kd (Histamine H3 receptor [15]; read-out: pKd (converted)): 1.15 nM
SMILES: Cc1cc(/C=C/C=C/c2ccc(N(C)C)cc2)cc(C)[n+]1CCCCCc1c[nH]cn1
